{"source": "patent EP0325187B1", "about": "“4-alkyl-1, 4-dihydropyridines with PAF-antagonist activity” (ALTER, S.A., priority 1988, dated 1989)", "key": {"[1]": {"system": "RABBIT PLATELETS", "test": "Aggregation of washed platelets induced by PAF (turbidimetric, lumiaggregometer)", "format": "cell-based, rabbits (male, albino, New Zealand)", "settings": "Oryctolagus cuniculus, Platelet; compound 10 µM; 1-PAF 1.92 nM; pre-incubation 5 minutes; average of six experiments in triplicate", "procedure": "(§1) • 1. STUDIES ON WASHED PLATELETS • 1.1.Aggregation The suspensions of washed platelets were obtained from the blood of rabbits (male, albino, New Zealand) anticoagulated with a citric acid-dextrose solution in the proportion 1:6 (v:v.) The platelet rich plasma (PRP) was obtained by centrifuging the blood samples at 100xg for 10 minutes and the platelet suspensions by centrifuging the PRP at 1,800xg for 15 minutes at 4° C. The pellet thus obtained was washed twice with Tyrode buffer containing citric acid, PGE₁ and apirase, pH 6.5. The platelets thus washed were finally resuspended in Hepes-Tyrode buffer, pH 7.35, supplemented with bovine albumin serum at 0.35 %; Ca⁺⁺2 mM. The final concentration of platelets was adjusted to 300,000 platelets/µl. The aggregation was measured turbidimetrically using a lumiaggregometer (Chrono-Log Co., Haventon, PA, USA) at 37° C under stirring at 1,100 r.p.m. The study was also carried out on aliquots of PRP pre-incubated with the compounds under study at 37° C for 5 minutes. The concentration of the antagonists were in all cases 10 µM and aggregation was induced by adding L-PAF diluted in 5 µl of Hepes buffer/albumin, with a final concentration 1.9 x 10⁻⁹M. • 1.2. Release reaction The platelet secretion was measured in the presence of luciferin/luciferase with ATP release in accord with the method described by Feinman et al. (1977.) • 2. STUDIES ON ANESTHETIZED RATS Hypotension induced by an intravenous injection of PAF-aceter. Male Sprague-Dawley rats anesthetized with pentobarbital (50 mg/kg., intraperitoneally) were used."}, "[2]": {"system": "RABBIT PLATELETS", "test": "Platelet release reaction (ATP release, luciferin/luciferase) induced by PAF", "format": "cell-based, rabbits (male, albino, New Zealand)", "settings": "Oryctolagus cuniculus, read-out: % […] REACTION, compound 10 µM, 1-PAF 1.92 nM, pre-incubation 5 minutes, average of six experiments in triplicate", "procedure": "as §1"}}}
{"smiles": "CCSCCOC(=O)C1=C(C)NC(C)=C(C(=O)OC)C1C", "note": "(stereo not shown) [Example 1, 2-(ethylthio)ethyl-2,6-dimethyl-4-methyl-5-methoxycarbonyl-1,4-dihydropyridin-3-carboxylate]", "values": [{"measurement": "inhibition at 10 µM", "setting": "[1]", "result": 44, "unit": "%"}, {"measurement": "inhibition at 10 µM", "setting": "[2]", "result": 96, "unit": "%"}]}
{"smiles": "COC(=O)C1=C(C)NC(C)=C(C(=O)OCCSC)C1C", "note": "(stereo not shown) [Example 2, 2-(methylthio)ethyl-2,6-dimethyl-4-methyl-5-methoxycarbonyl-1,4-dihydropyridin-3-carboxylate]", "values": [{"measurement": "inhibition at 10 µM", "setting": "[1]", "result": 26, "unit": "%"}, {"measurement": "inhibition at 10 µM", "setting": "[2]", "result": 75, "unit": "%"}]}
{"smiles": "CCOC(=O)C1=C(C)NC(C)=C(C(=O)OCCSC)C1C", "note": "(stereo not shown) [Example 3, 2,6-(methylthio)ethyl-2,6 dimethyl-5-ethoxycarbonyl-4-methyl-1,4-dihydropyridin-3-carboxylate]", "values": [{"measurement": "inhibition at 10 µM", "setting": "[1]", "result": 21, "unit": "%"}, {"measurement": "inhibition at 10 µM", "setting": "[2]", "result": 78, "unit": "%"}]}
{"smiles": "CCOC(=O)C1=C(C)NC(C)=C(C(=O)OCCSCC)C1C", "note": "(stereo not shown) [Example 4, 2-(ethylthio)ethyl-2,6-dimethyl-5-ethoxycarbonyl-4-methyl-1,4-dihydropyridin-3-carboxylate]", "values": [{"measurement": "inhibition at 10 µM", "setting": "[1]", "result": 32, "unit": "%"}, {"measurement": "inhibition at 10 µM", "setting": "[2]", "result": 89, "unit": "%"}]}
{"smiles": "CCOC(=O)C1=C(C)NC(C)=C(C(=O)OCCSC)C1CC", "note": "(stereo not shown) [Example 6, 2-(methylthio)ethyl-2,6-dimethyl-4-ethyl-5-ethoxycarbonyl-1,4-dihydropyridin-3-carboxylate]", "values": [{"measurement": "inhibition at 10 µM", "setting": "[1]", "result": 32, "unit": "%"}, {"measurement": "inhibition at 10 µM", "setting": "[2]", "result": 89, "unit": "%"}]}
{"smiles": "CCCC1C(C(=O)OCC)=C(C)NC(C)=C1C(=O)OCCSC", "note": "(stereo not shown) [Example 7, 2-(methylthio)ethyl-2,6-dimethyl-5-ethoxycarbonyl-4-n-propyl-1,4-dihydropyridin-3-carboxylate]", "values": [{"measurement": "inhibition at 10 µM", "setting": "[1]", "result": 14, "unit": "%"}, {"measurement": "inhibition at 10 µM", "setting": "[2]", "result": 50, "unit": "%"}]}
{"smiles": "CCCC1C(C(=O)OCC)=C(C)NC(C)=C1C(=O)OCCSCC", "note": "(stereo not shown) [Example 8, 2-(ethylthio)ethyl-2,6-dimethyl-5-ethoxycarbonyl-4-n-propyl-1,4-dihydropyridin-3-carboxylate]", "values": [{"measurement": "inhibition at 10 µM", "setting": "[1]", "result": 30, "unit": "%"}, {"measurement": "inhibition at 10 µM", "setting": "[2]", "result": 69, "unit": "%"}]}
{"smiles": "CCOC(=O)C1=C(C)NC(C)=C(C(=O)OCCSc2ccccc2)C1C", "note": "(stereo not shown) [Example 9, 2-(phenylthio)ethyl-2,6-dimethyl-5-ethoxycarbonyl-4-methyl-1,4-dihydropyridin-3-carboxylate]", "values": [{"measurement": "inhibition at 10 µM", "setting": "[1]", "result": 100, "unit": "%"}, {"measurement": "inhibition at 10 µM", "setting": "[2]", "result": 100, "unit": "%"}]}
{"smiles": "CC1=C(C(=O)OCCSc2ccccc2)C(C)C(C(=O)OCC2CCCO2)=C(C)N1", "note": "(stereo not shown) [Example 10, 2-(phenylthio)ethyl-2,6-dimethyl-4-methyl 5-(2-tetrahydrofurfuryloxycarbonyl)-1,4-dihydropyridin-3-carboxylate]", "values": [{"measurement": "inhibition at 10 µM", "setting": "[1]", "result": 11, "unit": "%"}, {"measurement": "inhibition at 10 µM", "setting": "[2]", "result": 49, "unit": "%"}]}
{"smiles": "CC1=C(C(=O)OCCSc2ccccc2)C(C)C(C(=O)OC(C)C)=C(C)N1", "note": "(stereo not shown) [Example 11, 2-(phenylthio)ethyl-2,6-dimethyl-5-isopropoxycarbonyl-4-methyl-1,4-dihydropyridin-3-carboxylate]", "values": [{"measurement": "inhibition at 10 µM", "setting": "[1]", "result": 33, "unit": "%"}, {"measurement": "inhibition at 10 µM", "setting": "[2]", "result": 89, "unit": "%"}]}
{"smiles": "COC(=O)C1=C(C)NC(C)=C(C(=O)OCCSc2ccccc2)C1C", "note": "(stereo not shown) [Example 12, 2-(phenylthio)ethyl-2,6-dimethyl 4-methyl-5-methoxycarbonyl-1,4-dihydropyridin-3-carboxylate]", "values": [{"measurement": "inhibition at 10 µM", "setting": "[1]", "result": 100, "unit": "%"}, {"measurement": "inhibition at 10 µM", "setting": "[2]", "result": 100, "unit": "%"}]}
